Experimental findings from US20250136570A1 (Tango Therapeutics, Inc., priority 2021, published 2025) are described below.

One assay has as its target Recombinant HDAC1 (Homo sapiens (Human), UniProt Q13547). As to the kind of experiment: HDAC1 inhibition, Fluor de Lys fluorescent enzyme assay. It counts as biochemical. Conditions: 3 hours pre-incubation at room temp; 6 nM enzyme; 16 μM Fluor de Lys substrate; duplicate. The method, boiled down:
(§1)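 Enzyme (HDAC1 6 nM, HDAC3/NCor2 1.2 nM final) pre-incubated with compound 3 h at ~22 °C in Tris pH 8 buffer with 0.01% BSA. Reaction run 1 h with 16 μM Fluor de Lys substrate and stopped with TSA-containing developer. Fluorescence read at Ex 360/Em 460; IC50 from an occupancy equation with Hill coefficient, in duplicate.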

Another assay concerns the target HDAC3/NCor2 (Homo sapiens (Human), UniProt O15379). Put plainly: HDAC3 inhibition, Fluor de Lys fluorescent enzyme assay. In kind it is biochemical. Conditions: 3 hours pre-incubation at room temp; 1.2 nM enzyme; 16 μM Fluor de Lys substrate; duplicate. In a few lines: as §1

Structures are written as SMILES.

HDAC3/NCor2, sequence (O15379 whole entry): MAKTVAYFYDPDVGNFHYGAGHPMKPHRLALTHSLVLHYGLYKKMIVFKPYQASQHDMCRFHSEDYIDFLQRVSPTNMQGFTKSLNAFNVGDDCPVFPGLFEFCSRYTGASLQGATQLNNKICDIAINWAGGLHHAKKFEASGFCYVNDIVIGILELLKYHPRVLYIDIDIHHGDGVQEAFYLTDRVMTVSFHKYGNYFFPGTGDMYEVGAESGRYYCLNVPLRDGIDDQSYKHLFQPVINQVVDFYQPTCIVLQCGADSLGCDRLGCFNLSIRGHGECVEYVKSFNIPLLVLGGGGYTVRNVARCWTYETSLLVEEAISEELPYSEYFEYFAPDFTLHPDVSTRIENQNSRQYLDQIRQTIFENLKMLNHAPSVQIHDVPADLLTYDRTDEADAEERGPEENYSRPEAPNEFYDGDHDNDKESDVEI
HDAC3/NCor2, sequence (Q9Y618 395-489 partner): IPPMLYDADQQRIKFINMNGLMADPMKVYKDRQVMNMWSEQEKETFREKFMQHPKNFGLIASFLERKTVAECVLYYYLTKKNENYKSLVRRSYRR
Recombinant HDAC1, sequence (Q13547 whole entry): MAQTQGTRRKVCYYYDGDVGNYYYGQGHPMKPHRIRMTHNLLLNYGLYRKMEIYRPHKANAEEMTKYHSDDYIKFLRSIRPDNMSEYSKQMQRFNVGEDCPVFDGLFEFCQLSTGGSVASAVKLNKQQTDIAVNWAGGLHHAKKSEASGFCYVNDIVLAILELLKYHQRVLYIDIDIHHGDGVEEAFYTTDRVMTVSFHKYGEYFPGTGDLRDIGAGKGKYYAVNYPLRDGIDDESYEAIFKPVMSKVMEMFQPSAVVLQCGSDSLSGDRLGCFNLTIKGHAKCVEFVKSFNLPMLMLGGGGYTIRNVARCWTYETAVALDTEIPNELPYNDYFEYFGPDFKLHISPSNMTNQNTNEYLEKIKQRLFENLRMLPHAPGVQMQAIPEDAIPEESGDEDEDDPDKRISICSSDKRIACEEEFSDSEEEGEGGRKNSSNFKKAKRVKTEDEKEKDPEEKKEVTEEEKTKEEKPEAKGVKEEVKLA

In the case of `CS(=N)(=O)c1ccc(C(=O)Nc2cc(-c3ncccn3)ccc2N)cc1` (stereo not shown) [Compound 158, N-(2-amino-5-pyrimidin-2-yl-phenyl)-4-(methylsulfonimidoyl)benzamide], the figures for the IC50 on Recombinant HDAC1 and at HDAC3/NCor2 were 500 to 2000 nM and > 2000 nM, respectively.

With `COc1ncc(S(=N)(=O)c2ccc(C(=O)Nc3cc(-c4ccc(F)cc4)ccc3N)cc2)[nH]1` (stereo not shown) [Compound 252, N-[2-amino-5-(4-fluorophenyl)phenyl]-4-[(2-methoxy-1H-imidazol-5-yl)sulfonimidoyl]benzamide], the results for the IC50 at Recombinant HDAC1 and against HDAC3/NCor2 were < 100 nM and > 2000 nM, respectively.

On to `CS(=N)(=O)c1cnc2sc(C(=O)Nc3cc(-c4ccc(F)cc4)ccc3N)cc2c1` (stereo not shown) [Compound 202, N-[2-amino-5-(4-fluorophenyl)phenyl]-5-(methylsulfonimidoyl)thieno[2,3-b]pyridine-2-carboxamide], for which the figures for the IC50 on Recombinant HDAC1 and against HDAC3/NCor2 were < 100 nM and > 2000 nM, respectively.

For `CS(=N)(=O)c1ccc(C(=O)Nc2cc(-c3cccs3)ccc2N)nn1` (stereo not shown) [Compound 124, N-[2-amino-5-(2-thienyl)phenyl]-6-(methylsulfonimidoyl)pyridazine-3-carboxamide], the IC50 at Recombinant HDAC1 was < 100 nM; at HDAC3/NCor2 it was 100 to 500 nM.

As for `CS(=N)(=O)c1ccc(C(=O)Nc2cc(-c3ccc(Cl)cc3)ccc2N)cc1` (stereo not shown) [Compound 182, N-[2-amino-5-(4-chlorophenyl)phenyl]-4-(methylsulfonimidoyl)benzamide], the IC50 on Recombinant HDAC1 was < 100 nM; against HDAC3/NCor2 it was > 2000 nM.

One may read the IC50 as the midpoint of a concentration-inhibition curve.
